From patent US20080249075A1, “C11 Modified Retrosteroids as Progesterone Receptor Modulator Compounds” (Solvay Pharmaceuticals GmbH, priority 2007, published 2008) come the findings set out here.

The test system of the experiment is T47D human breast carcinoma cells. Nature of the experiment: cells. The class given is cell-based. Conditions: for activation at 0.1 µM / inhibition at 0.1 µM / IC50 / EC50: Homo sapiens, T47D; for activation at 0.1 µM: 48 h, read-out: PS [100 nM] (% stimulation); for inhibition at 0.1 µM: read-out: PI [100 nM] (% inhibition); for IC50: read-out: pIC50 (converted); for PS [100 nM] (% stimulation): agonistic mode, alkaline phosphatase induction (100% = 1 nM Dydrogesterone); for PS [100 nM] (% stimulation) / PI [100 nM] (% inhibition): compound 100 nM; for PI [100 nM] (% inhibition): antagonistic mode, inhibition of alkaline phosphatase induction by 1 nM Dydrogesterone; for pIC50: antagonistic potency against 1 nM Dydrogesterone; for EC50: read-out: pEC50 (converted). As for the experimental part: The progesterone-dependent modulation of alkaline phosphatase expression was examined using T47D human breast carcinoma cells [Keydar et al., 1979]. The assay was performed as previously described by Di Lorenzo et al. (1991) with the modification of using Dydrogesterone as comparative progestin to determine the antagonistic and agonistic activity.
The cell line was purchased from CLS Cell Lines Service (Hildastrasse 21, D-69214 Eppelheim, Germany). In brief, the cells were plated in 96-well plates at 40,000 cells/well using the following growth medium: RPMI 1640 with: 10% FBS, 1 mM Sodium Pyruvat MEM, 10 mM Hepes, 0.01 mg/ml Bovine insulin, and 25 μg/ml Gentamycin. After 24 h of cultivation, the growth medium was replaced with medium containing 2% fetal bovine serum and the test compounds were added to each well to achieve the appropriate compound concentration: For determination of agonistic activity only the test compounds were added; for measurement of antagonistic activity the test compounds and additionally Dydrogesterone as standard progesterone agonist was added to a final concentration of 1 nM. After 48 h of cultivation, the medium was removed and the cells were washed with 200 μl of Dulbecco's phosphate-buffered saline without calcium and magnesium (PBS(−)). Then the cells were fixed with 3.7% formaldehyde in phosphate-buffered saline for 15 min at 22° C. After washing the cells with PBS, 100 μl of a […] (pNPP) solution (pNPP Liquid Substrate System; Sigma) was added to each well and incubated for 2 h at room temperature protected from light. The reaction was stopped with 100 μl 1N NaOH and the absorbance was measured with a spectrophotometer (Victor, Perkin Elmer) at 405 nm. The results are expressed as alkaline phosphatase induction (as 100% with 1 nM Dydrogesterone) or inhibition (against alkaline phosphatase induction by 1 nM Dydrogesterone) at a certain concentration of test compound.
% stimulation=(effect compound−basal)/(effect dydro 1 nM−basal)*100% inhibition of 1 nM Dydro=100*{1-[(effect compound−basal)/(effect dydro 1 nM−basal)]}
For each compound the % inhibition (PI) and % stimulation (PS), respectively, at a compound concentration of 100 nM was determined. For selected compounds, the corresponding values were measured for several different concentrations, and subsequently were plotted against the concentration of the test compound, and used to calculate the IC50 value (for the antagonistic potency; the IC50 value is the concentration (nM), required to reduce the maximal response by 50%) and EC50 values (for the agonistic potency; the EC50 value is the effective concentration (nM) that produced 50% of the maximum response), respectively.

Structures are written as SMILES.

By inhibition is commonly meant the relative decrease from the control value, in per cent. Broadly, the pIC50 is −log10 of the IC50, conventionally taken in molar units. Read a high pIC50 as a small IC50. In general, pEC50 refers to the negative decadic logarithm of the EC50, by convention in mol/L. Read a low pEC50 as a high EC50.

`CC(=O)[C@H]1CC[C@H]2[C@@H]3C=CC4=CC(=O)CC[C@@]4(C)[C@@H]3[C@@H](OC(=O)NC(C)C)C[C@]12C` [Compound No. 1, Dydrogesterone-11β-yl isopropylcarbamate]: the activation at 0.1 µM is -3%, the inhibition at 0.1 µM was 46% and the IC50 is 158 nM.

Regarding `CC(=O)[C@H]1CC[C@H]2[C@@H]3C=CC4=CC(=O)CC[C@@]4(C)[C@@H]3C(OC(=O)Nc3cccc(-n4cccc4)c3)C[C@]12C` (some centres unmarked) [compound 103, (3-Pyrrol-1-yl-phenyl)-carbamicacid dydrogesterone-11-yl ester], where the note is “T47D cells”, the “PS [100 nM] (% stimulation)” value came out at 21.0%, the “PI [100 nM] (% inhibition)” value is 52.0% and the negative logarithm of the IC50 (pIC50) turned out to be 7.2.

Turning to `CCNC(=O)O/N=C/c1cccc(NC(=O)O[C@H]2C[C@]3(C)[C@@H](C(C)=O)CC[C@H]3[C@@H]3C=CC4=CC(=O)CC[C@@]4(C)[C@@H]32)c1` [Compound No. 33, [3-(N-Ethylcarbamoyl-oximino-formyl)-phenyl]-carbamic acid dydrogesterone-11β-yl ester], the activation at 0.1 µM was determined as 56%, the inhibition at 0.1 µM is -29% and the EC50 is 200 nM.

Regarding `CC(=O)[C@H]1CC[C@H]2[C@@H]3C=CC4=CC(=O)CC[C@@]4(C)[C@@H]3C(OC(=O)Nc3ccc4cc[nH]c4c3)C[C@]12C` (some centres unmarked) [compound 88, (1H-Indol-6-yl)-carbamic aciddydrogesterone-11-yl ester], under “T47D cells”, the “PS [100 nM] (% stimulation)” value turned out to be 0.0% and the “PI [100 nM] (% inhibition)” value turned out to be 48.0%.

On to `CC(=O)[C@H]1CC[C@H]2[C@@H]3C=CC4=CC(=O)CC[C@@]4(C)[C@@H]3C(OC(=O)Nc3cccc(OC(F)(F)F)c3)C[C@]12C` (some centres unmarked) [compound 74, (3-Trifluoromethoxy-phenyl)-carbamic acid dydrogesterone-11-yl ester], for which, under “T47D cells”, the “PS [100 nM] (% stimulation)” value is 89.0% and the “PI [100 nM] (% inhibition)” value was −23.0%. Also, the pEC50 (agonistic potency, T47D cells) was found to be 6.3.

Turning to `COc1ccc(C(=O)O[C@H]2C[C@]3(C)[C@@H](C(C)=O)CC[C@H]3[C@@H]3C=CC4=CC(=O)CC[C@@]4(C)[C@@H]32)cc1` [Compound No. 22, 4-Methoxy-benzoic acid dydrogesterone-11β-yl ester], the activation at 0.1 µM is 29%, the inhibition at 0.1 µM turned out to be 55%, the EC50 was 12.6 nM and the IC50 was 20 nM.

In the case of `CC(=O)[C@H]1CC[C@H]2[C@@H]3C=CC4=CC(=O)CC[C@@]4(C)[C@@H]3C(OC(=O)Nc3ccc4c(c3)S(=O)(=O)C=C4)C[C@]12C` (some centres unmarked) [compound 98, (1,1-Dioxo-1H-1lambda*6*-benzo[b]thiophen-6-yl)-carbamicacid dydrogesterone-11-yl ester], for the setting “T47D cells”, the “PS [100 nM] (% stimulation)” value is given as 1.0%, the “PI [100 nM] (% inhibition)” value worked out at 61.0% and the pIC50 is recorded as 7.0.

`CSc1ccc(NC(=O)OC2C[C@]3(C)[C@@H](C(C)=O)CC[C@H]3[C@@H]3C=CC4=CC(=O)CC[C@@]4(C)[C@H]23)cc1` (some centres unmarked) [compound 94, (4-Methylsulfanyl-phenyl)-carbamic acid dydrogesterone-11-yl ester]: where the note is “T47D cells”, the “PS [100 nM] (% stimulation)” value is 1.0%, the “PI [100 nM] (% inhibition)” value was 61.0% and the pIC50 was 7.0.

Turning to `CC(=O)[C@H]1CC[C@H]2[C@@H]3C=CC4=CC(=O)CC[C@]4(C)[C@H]3C(OC(=O)Nc3ccc4ncccc4c3)C[C@]12C` (some centres unmarked) [compound 69, Quinolin-6-yl-carbamic aciddydrogesterone-11-yl ester], under “T47D cells”, the “PS [100 nM] (% stimulation)” value is 4.0%, the “PI [100 nM] (% inhibition)” value is listed as 41.0% and the pIC50 stood at 7.2.

In the case of `CC(=O)[C@H]1CC[C@H]2[C@@H]3C=CC4=CC(=O)CC[C@@]4(C)[C@@H]3C(OC(=O)Nc3ccc4c(c3)OCCO4)C[C@]12C` (some centres unmarked) [compound 70, (2,3-Dihydro-benzo[1,4]dioxin-6-yl)-carbamic aciddydrogesterone-11-yl ester], for the setting “T47D cells”, the “PS [100 nM] (% stimulation)” value amounted to 1.0%, the “PI [100 nM] (% inhibition)” value is listed as 44.0% and the pIC50 came to 6.9.

In the case of `CCO[C@]1(C(C)=O)CC[C@H]2[C@@H]3C=CC4=CC(=O)CC[C@@]4(C)[C@@H]3[C@@H](OC(=O)c3ccccc3)C[C@@]21C` [Compound No. 23, Benzoic acid 17-ethoxy-dydrogesterone-11β-yl ester], the activation at 0.1 µM was determined as 16%, the inhibition at 0.1 µM was 69% and the IC50 is 15.8 nM.

As to `COc1cccc(NC(=O)O[C@H]2C[C@]3(C)[C@@H](C(C)=O)CC[C@H]3[C@@H]3C=CC4=CC(=O)CC[C@@]4(C)[C@@H]32)c1` [Compound No. 15, (3-Methoxy-phenyl)-carbamic acid dydrogesterone-11β-yl ester], the activation at 0.1 µM is -3%, the inhibition at 0.1 µM is 43% and the IC50 was 126 nM.

For the molecule `CCO[C@]1(C(C)=O)CC[C@H]2[C@@H]3C=CC4=CC(=O)CC[C@@]4(C)[C@@H]3[C@@H](OC(=O)Nc3cccc(OC)c3)C[C@@]21C` [Compound No. 12, (3-Methoxy-phenyl)-carbamic acid 17-ethoxy-dydrogesterone-11β-yl ester], the activation at 0.1 µM was 23%, the inhibition at 0.1 µM amounted to 72% and the IC50 was 6.31 nM.

For `CC(=O)[C@H]1CC[C@H]2[C@@H]3C=CC4=CC(=O)CC[C@@]4(C)[C@@H]3[C@@H](OC(=O)Nc3cccc(C(N)=O)c3)C[C@]12C` [Compound No. 14, (3-Carbamoyl-phenyl)-carbamic acid dydrogesterone-11β-yl ester], the activation at 0.1 µM was -1%, the inhibition at 0.1 µM stood at 38% and the IC50 is 50.1 nM.

Turning to `COc1ccc(NC(=O)O[C@H]2C[C@]3(C)[C@@H](C(C)=O)CC[C@H]3[C@@H]3C=CC4=CC(=O)CC[C@@]4(C)[C@@H]32)cc1` [Compound No. 11, (4-Methoxy-phenyl)-carbamic acid dydrogesterone-11β-yl ester], the activation at 0.1 µM came to 0% and the inhibition at 0.1 µM came out at 39%.

For `CC(=O)[C@H]1CC[C@H]2[C@@H]3C=CC4=CC(=O)CC[C@@]4(C)[C@@H]3C(OC(=O)Nc3ccc(OC(F)F)cc3)C[C@]12C` (some centres unmarked) [compound 75, (4-Difluoromethoxy-phenyl)-carbamic acid dydrogesterone-11-yl ester], where the note is “T47D cells”, the “PS [100 nM] (% stimulation)” value is recorded as 0.0%, the “PI [100 nM] (% inhibition)” value is 59.0% and the pIC50 was 6.9.

On to `COc1cc(NC(=O)OC2C[C@]3(C)[C@@H](C(C)=O)CC[C@H]3[C@@H]3C=CC4=CC(=O)CC[C@@]4(C)[C@H]23)cc(-n2cnnn2)c1` (some centres unmarked) [compound 104, (3-Methoxy-5-tetrazol-1-yl-phenyl)-carbamic aciddydrogesterone-11-yl ester], for which, for the setting “T47D cells”, the “PS [100 nM] (% stimulation)” value was found to be 1.0%, the “PI [100 nM] (% inhibition)” value is 45.0% and the pIC50 is 6.9.

As to `CC(=O)Nc1cccc(NC(=O)OC2C[C@]3(C)[C@@H](C(C)=O)CC[C@H]3[C@@H]3C=CC4=CC(=O)CC[C@@]4(C)[C@H]23)c1` (some centres unmarked) [compound 95, (3-Acetylamino-phenyl)-carbamicacid dydrogesterone-11-yl ester], under “T47D cells”, the “PS [100 nM] (% stimulation)” value was 1.0%, the “PI [100 nM] (% inhibition)” value is 50.0% and the pIC50 was 6.8.

On to `CC(=O)[C@H]1CC[C@H]2[C@@H]3C=CC4=CC(=O)CC[C@@]4(C)[C@@H]3C(OC(=O)Nc3cccc(N4CCCC4=O)c3)C[C@]12C` (some centres unmarked) [compound 100, [3-(2-Oxo-pyrrolidin-1-yl)-phenyl]-carbamic aciddydrogesterone-11-yl ester], for which, under “T47D cells”, the “PS [100 nM] (% stimulation)” value worked out at 1.0%, the “PI [100 nM] (% inhibition)” value is reported as 45.0% and the pIC50 came out at 6.6.

As for `CC(=O)[C@H]1CC[C@H]2[C@@H]3C=CC4=CC(=O)CC[C@@]4(C)[C@@H]3C(OC(=O)Nc3ccc(C)c(Br)c3)C[C@]12C` (some centres unmarked) [compound 76, (3-Bromo-4-methyl-phenyl)-carbamic acid dydrogesterone-11-yl ester], under “T47D cells”, the “PS [100 nM] (% stimulation)” value is recorded as 4.0%, the “PI [100 nM] (% inhibition)” value is on record as 67.0% and the pIC50 turned out to be 7.3.
